Experimental data from patent publication US8609695B2, “Methods of treating and/or suppressing insulin resistance” (Endorecherche, Inc., priority 1999, dated 2013).
Marks after values point to notes of the source that are not given here.

Assays:
ovariectomized rats = test: 20-day treatment with EM-652.HCl, body fat, body weight and energy balance (Example 3); type: in vivo, rat; settings: OVX rats, 20 days
Experimental: Eight to ten week-old female Sprague-Dawley rats (Crl:CD(SD)Br) (Charles River Laboratory, St-Constant, Canada) weighing approximately 200-225 g at the start of treatment were used. The animals were acclimatized to the environmental conditions (temperature: 22±3° C.; 10-h light-14-h dark cycles, lights on at 06:00 h) for 1 week before starting the experiment. The animals were housed individually in stainless steel cages of conventional design and were allowed free access to tap water and a high carbohydrate mixed diet composed of (g/100 g): Corn starch, 31.2; Dextrose, 31.2; Casein, 20.0; corn oil, 6.4; dl-Methionine, 0.3; Vitamine mix, 1.0; AIN-76 mineral mix, 4.9 and fiber, 5.0. The experiment was conducted in a Canadian Council on Animal Care approved facility in accordance with the CCAC Guide for Care and Use of Experimental Animals.
On day 1 of the study, the animals of the appropriate groups were bilaterally ovariectomized (OVX) under isoflurane anesthesia. […] The treatment with EM-652.HCl or vehicle alone (0.4% methylcellulose in water) was initiated on day 2 of the study. The compound or vehicle was given once daily by oral gavage in 0.5 ml/rat for 20 days. Body weights and food consumption were recorded every 2 days.
Approximately 24 hours after the last dosing, overnight fasted animals were anesthesized with ketamine-xylazine and blood drawn by cardiac puncture. The blood was collected as well as white and brown adipose tissues.
Body weight, food intake, and body gains in energy, fat, and protein were determined according to Deshaies et al, Am. J. Physiol., 1997; 273, E355-E362 (1997).
Lipoprotein lipase activities were determined according to Deshaies et al, Am. J. Physiol., 1997; 273, E355-E362 (1997).

[1] = tested on: ovariectomized female rats; test: 20-day treatment with EM-652.HCl, estradiol and DHEA, body fat (Example 6); type: in vivo, Rattus norvegicus; settings: OVX rats
Excerpt: d) Diet: Certified Rodent feed (Lab Diet #5002, pellets) and tap water were provided ad libitum during the acclimation period. During the study period, the rats received an enriched carbonhydrate diet ad libitum. The enriched diet (diet #3) was composed of (g/100 g): Corn starch, 31.2; Dextrose, 31.2; Casein, 20.0; Corn oil, 6.4; dl-Methionine, 0.3; Vitamin mix, 1.0; AIN-76 mineral mix, 4.9; Fiber, 5.0.
80 rats were assigned to 8 groups of 10 rats for the conduct of the study outlined below:
On day 0 of the study, rats from groups 2 to 8 were ovariectomized, by bilateral flank incision, under Isoflurane-induced anesthesia. Rats from group 1 were sham-operated.
The administration of the test articles or vehicle began on Day 1 (the day following the ovariectomy). The tested compounds were given as suspensions in 0.4% methylcellulose by oral gavage (0.5 ml/gavage) for 20 days.
On day 21 of the study (prior to the necropsy), body composition was determined on whole body skeleton of animals under Isoflurane-induced anesthesia using dual energy x-ray absorptiometry (DEXA; QDR 4500A, Hologic) in order to determine the effect of treatments on fat percentage.
Right and left retroperitoneal adipose tissue were collected and weighed.

[2] = tested on: ovariectomized female rats; test: SERM comparison, energy balance and lipid-lipoprotein metabolism (Example 10); type: in vivo, Rattus norvegicus; settings: OVX rats, 20 days
Experimental: For this purpose, tested compounds were administered by oral gavage for 20 days (0.5 mg/rat for each compound; 0.5 ml/rat) in 0.4% methylcellulose to ovariectomized female rats.
d) Diet: • During acclimation period, rats received a certified rodent diet (Lab Diet #5002, pellet) and tap water ad libitum while during study period, they received a high carbonhydrate diet (diet #3) and tap water ad libitum. The diet was composed of (g/100 g): Corn starch, 31.2; Dextrose, 31.2; Casein, 20.0; corn oil, 6.4; dl-Methionine, 0.3; Vitamine mix, 1.0; AIN-76 mineral mix, 4.9; fiber, 5.0. Rats were fasted (with access to water only) around 07 h00 the morning of their necropsy Randomization:
Test group: Seventy-seven rats were assigned to 8 groups of 9-10 rats for conduct of the study outlined below.
On day 0 of the study, rats from group 2 to 8 were ovariectomized (by bilateral flank incision) under Isoflurane anesthesia. Rats from group 1 were sham-operated.
Rats were weighed on day 0 (surgery) and then, every 2 days during study period as well as on the day of necropsy.
Food consumption was evaluated every 2 days.
In order to determine the effect of treatments on fat percentage, body composition was measured on Day 17 of the study using dual energy x-ray absorptiometry (DEXA; QDR 4500A, Hologic, Waltham, Mass.).
On day 21 of the study, approximately 24 hours after the last dosing and 6 hours of fasting, animals under Ketamine-Xylazine anesthesia were killed by exsanguination at the abdominal aorta.
Blood lipids (Total cholesterol and Triglycerides) and glucose were measured on frozen serum samples using the Boehringer Mannheim Diagnostic Hitachi 911 Analyzer (Boehringer Mannheim Diagnostic Laboratory Systems). Circulating hormones and substrates (Insulin and leptin) were measured on serum sample using the following kits: • Insulin: Linco RIA kit • Leptin: Linco RIA kit Organs and Tissues Collected
The following tissues were collected and weighed: • Muscle (right soleus and right VLM), fat (right retroperitoneal and right inguinal), and brown adipose tissue.
A piece of ˜0.1 g of all tissues (except uterus and vagina) were frozen in liquid nitrogen and kept at −80 C for later determination of lipoprotein-lipase (LPL) activity.

ovariectomized rat = test: 35-week treatment, total body fat and body weight of ovariectomized rat (Example 1); type: in vivo; settings: OVX rats; for Body Weight at Necropsy: 37 weeks
Experimental: The animals were housed three per cage and were allowed free access to tap water and a pelleted certified rodent feed (Lab Diet 5002, Ralston Purina, St-Louis, Mo.). The experiment was conducted in a Canadian Council on Animal Care approved facility in accordance with the CCAC Guide for Care and Use of Experimental Animals. […] The appropriate compound or vehicle alone was given once daily by oral gavage in 0.5 ml/rat for 37 weeks. Approximately 24 hours after the last dosing, overnight fasted animals were killed by exsanguination at the abdominal aorta under isoflurane anesthesia. After 35 weeks of treatment, individual rats under anesthesia with isoflurane had their whole body skeleton as well as their right femur scanned using dual energy x-ray absorptiometry (DEXA; QDR 4500A, Hologic, Waltham, Mass.) and a Regional High Resolution Scan software. The scan field size used for the whole body was 30.492×17.912 cm, the resolution was 0.1512×0.0640 cm and the scan speed was 2.499 mm/sec. The fat body composition of the whole body was determined. Data are expressed as the means±SEM. Statistical significance was determined according to the multiple-range test of Duncan-Kramer (1956).

[3] = tested on: ovariectomized female rats; test: 34-week treatment with ethynyl estradiol, EM-652.HCl, Raloxifene and DHEA, body fat (Example 7); type: in vivo, rat; settings: OVX rats, 34 weeks
Experimental: The objective of this study was to assess the effect of a combined treatment with EM-652.HCl, and DHEA on body fat and body weight parameters in ovariectomized rats. For this purpose, ovariectomized rats received daily administration of EM-652.HCl (1 mg/kg), and DHEA (80 mg/kg) alone or in combination, for 34 weeks. EM-652.HCl was administered orally while DHEA was applied topically on dorsal skin. One group of animals was orally treated with 17-ethynylestradiol (0.1 mg/kg) and Raloxifene (EM-1105; 1 mg/kg) for comparison.
Ten to twelve week-old female Sprague-Dawley rats (Crl:CD(SD)Br) weighing approximately 235-250 g at start of treatment were used. Eighty rats were randomly distributed between 7 groups of 11 to 12 animals per group as follows: 1) Intact control; 2) OVX control; 3) OVX+EE2 (0.1 mg/kg); 4) OVX+raloxifene (1 mg/kg); 5) OVX+EM-652.HCl (1 mg/kg); 6) OVX+DHEA (80 mg/kg); 7) OVX+EM-652.HCl+DHEA. On day 1 of the study, the animals of the appropriate groups were bilaterally ovariectomized (OVX) under isoflurane anesthesia. EM-652.HCl, raloxifene and EE2 (Steraloids) were administered once daily by oral gavage as suspension in 0.4% methylcellulose (0.5 ml/rat) for 34 weeks while DHEA was applied topically once daily on dorsal skin as a solution in 50% ethanol-50% propylene glycol (0.5 ml/rat) for the same time period. Approximately 24 hours after the last dosing, overnight fasted animals were killed by exsanguination at the abdominal aorta under isoflurane anesthesia. Left and right retroperitoneal adipose tissues were collected and weighed.
After 34 weeks of treatment, individual rats under anesthesia with isoflurane had their whole body skeleton scanned using dual energy x-ray absorptiometry (DEXA; QDR 4500A, Hologic, Waltham, Mass.) and a Regional High Resolution Scan software. The body composition (including fat percentage) was determined.
Data were expressed as the means±SEM.

[4] = EM-652.HCl 0.5 mg/rat oral once daily, E2 implant
[5] = high carbohydrate diet, 0.5 mg/rat oral gavage
[6] = EE2 0.1, Raloxifene 1, EM-652.HCl 1 mg/kg oral, DHEA 80 mg/kg topical

C[C@]12CC[C@@H]3c4ccc(O)cc4CC[C@H]3[C@@H]1CC[C@@H]2O [E2, estradiol]
total energy intake, higher than that of intact animals (ovariectomized rats): 17%
Digestible energy intake (ovariectomized rats; [4]): 5511^a kJ
Enegery gain (ovariectomized rats; [4]): 903 kJ
Apparent energy (expenditure) (ovariectomized rats; calculated from energy intake and energy gain): 4609^a kJ
decrease of body fat ([1]; 20 days): 46%
decrease of retroperitoneal adipose tissue ([1]; 20 days): 78%
Retroperitoneal adipose tissue ([1]; enriched carbohydrate diet, 20 days oral, EM-652.HCl 0.5, E2 0.5, DHEA 100 mg/rat): 0.81 ± 0.17 g
Fat % ([1]; enriched carbohydrate diet, 20 days oral, EM-652.HCl 0.5, E2 0.5, DHEA 100 mg/rat, DEXA day 21): 10.3 ± 0.6%
Brown adipose tissue Lipoprotein lipase activity [2, 5]: 1198 ± 62 μU/g protein
Brown adipose tissue weight [2, 5]: 0.211 ± 0.021 g
Cumulative food intake [2, 5]: 255 ± 9 g
Serum glucose [2, 5]: 11.8 ± 1.4 mmol/L
Serum insulin [2, 5]: 0.070 ± 0.007 nmol/L
Serum leptin [2, 5]: 0.309 ± 0.097 ng/mL
Serum total cholesterol [2, 5]: 2.03 ± 0.15 mmol/L
Serum triglycerides [2, 5]: 0.43 ± 0.04 mmol/L
Soleus muscle Lipoprotein lipase activity [2, 5]: 10.9 ± 2.0 μU/g protein
Soleus muscle weight [2, 5]: 0.086 ± 0.003 g
Total weight [2, 5]: 198 ± 4 g
VastusLateralis muscle weight [2, 5]: 0.718 ± 0.026 g
White adipose tissue inguinal Lipoprotein lipase activity [2, 5]: 416 ± 74 μU/g protein
White adipose tissue inguinal weight [2, 5]: 0.158 ± 0.019 g
White adipose tissue retroperitoneal Lipoprotein lipase activity [2, 5]: 1442 ± 243 μU/g protein

CC1=C(c2ccc(OC(=O)C(C)(C)C)cc2)[C@H](c2ccc(OCCN3CCCCC3)cc2)Oc2cc(OC(=O)C(C)(C)C)ccc21 [EM-800]
decrease of the OVX-induced stimulation of body fat (DEXA) (ovariectomized rat; 0.01 mg/kg orally once daily, 35 weeks, FIG. 1): 78%
Body Weight at Necropsy (ovariectomized rat; 0.01 mg/kg orally once daily): 385 ± 17 g
Body Weight at Necropsy (ovariectomized rat; 0.03 mg/kg orally once daily): 364 ± 10 g
Body Weight at Necropsy (ovariectomized rat; 0.1 mg/kg orally once daily): 369 ± 17 g
Body Weight at Necropsy (ovariectomized rat; 0.3 mg/kg orally once daily): 359 ± 7 g
Body Weight at Necropsy (ovariectomized rat; 1 mg/kg orally once daily): 368 ± 6 g

Cl.O=C(c1ccc(OCCN2CCCCC2)cc1)c1c(-c2ccc(O)cc2)sc2cc(O)ccc12 [Raloxifene]
Body Weight at Necropsy (ovariectomized rat; 0.01 mg/kg orally once daily): 439 ± 13 g
Body Weight at Necropsy (ovariectomized rat; 0.03 mg/kg orally once daily): 451 ± 14 g
Body Weight at Necropsy (ovariectomized rat; 0.1 mg/kg orally once daily): 389 ± 14 g
Body Weight at Necropsy (ovariectomized rat; 0.3 mg/kg orally once daily): 367 ± 9 g
Body Weight at Necropsy (ovariectomized rat; 1 mg/kg orally once daily): 342 ± 12 g
effect on body fat (DEXA) (ovariectomized rat; 0.01-1 mg/kg orally once daily, 35 weeks, FIG. 1): less active than EM-800
increment of body fat and retroperitoneal adipose tissue by ovariectomy [3]: prevented
Fat % ([3]; DEXA, EE2 0.1, Raloxifene 1, EM-652.HCl 1 mg/kg oral, DHEA 80 mg/kg topical): 22.8 ± 1.6%
Left retroperitoneal adipose tissue [3, 6]: 1.41 ± 0.13 g
Right retroperitoneal adipose tissue [3, 6]: 1.29 ± 0.12 g
Serum insulin (in words) ([2]; 0.5 mg/rat): decreased
Brown adipose tissue Lipoprotein lipase activity [2, 5]: 960 ± 116 μU/g protein
Brown adipose tissue weight [2, 5]: 0.307 ± 0.26 g
Cumulative food intake [2, 5]: 307 ± 8 g
Serum glucose [2, 5]: 13.8 ± 1.2 mmol/L
Serum insulin [2, 5]: 0.077 ± 0.10 nmol/L
Serum leptin [2, 5]: 1.39 ± 0.30 ng/mL
Serum total cholesterol [2, 5]: 1.19 ± 0.08 mmol/L
Serum triglycerides [2, 5]: 1.20 ± 0.35 mmol/L
Soleus muscle Lipoprotein lipase activity [2, 5]: 10.2 ± 2.0 μU/g protein
Soleus muscle weight [2, 5]: 0.099 ± 0.003 g
Total weight [2, 5]: 230 ± 3 g
VastusLateralis muscle weight [2, 5]: 0.795 ± 0.055 g
White adipose tissue inguinal Lipoprotein lipase activity [2, 5]: 579 ± 46 μU/g protein
White adipose tissue inguinal weight [2, 5]: 0.245 ± 0.047 g
White adipose tissue retroperitoneal Lipoprotein lipase activity [2, 5]: 1510 ± 52 μU/g protein
White adipose tissue retroperitoneal weight [2, 5]: 1.32 ± 0.24 g
